Data from US10011842B2, “Escherichia coli cell line with thyA knockout, folA knockout, and one or both of folP knockout, and folK knockout” (priority 2013, dated 2018).

What was measured:
[1] = system: Plasmodium falciparum parasites; assay: standard hypoxanthine incorporation method in Plasmodium falciparum parasites; assay type: cell-based; conditions: read-out: IC50 (50% inhibitory concentration)
[2] = system: PEcΔTFP transformed with plasmids containing Pfdhfr-ts (WT) and Pfhppk-dhps (WT); assay: growth inhibition of PEcΔTFP surrogate host (antifolate drug screening); assay type: cell-based, Escherichia coli BL21(DE3); conditions: PEcΔTFP with wild type Pfdhfr-ts and Pfhppk-dhps, minimal media with L-arabinose, 37 degrees Celsius, 16 hours
Description: (§1) Pyrimethamine and sulfathiazole were chosen for this experiment. The 50% inhibitory concentrations (IC50) of each drug were calculated from dose-response growth curves for PEcΔTFP and PEcΔTFPK surrogates transformed with plasmids containing wild type Pfdhfr-ts and Pfhppk-dhps. Cells were incubated in various concentrations of drug in minimal media supplemented with L-arabinose as an inducer and antibiotics for selection of complementing plasmids in 96-well plates at 37 degrees Celsius for 16 hours.

[3] = system: PEcΔTFPK transformed with plasmids containing Pfdhfr-ts (WT) and Pfhppk-dhps (WT); assay: growth inhibition of PEcΔTFPK surrogate host (antifolate drug screening); assay type: cell-based, Escherichia coli BL21(DE3); conditions: PEcΔTFPK with wild type Pfdhfr-ts and Pfhppk-dhps, minimal media with L-arabinose, 37 degrees Celsius, 16 hours
Description: as §1

SMILES | IC50 [1] | IC50 from dose-response growth curves compared with the standard method [2] | IC50 from dose-response growth curves compared with the standard method [3]
CCc1nc(N)nc(N)c1-c1ccc(Cl)cc1 [pyrimethamine] | 0.041 ± 0.006 µM |  | 
Nc1ccc(S(=O)(=O)Nc2nccs2)cc1 [sulfathiazole] | 135.4 ± 0.49 µM | very similar to values from the standard hypoxanthine incorporation method | very similar to values from the standard hypoxanthine incorporation method
